Experimental data published in paper PMC6122928 (The Journal of General Physiology, 2018).

Assays:
xTMEM16A [1] = biological target: T1, xTMEM16A (Xenopus laevis, UniProt B5SVV6); test: TEVC in axolotl oocytes, current evoked by uncaging IP3; assay type: cell-based
T1 sequence (B5SVV6 1-979): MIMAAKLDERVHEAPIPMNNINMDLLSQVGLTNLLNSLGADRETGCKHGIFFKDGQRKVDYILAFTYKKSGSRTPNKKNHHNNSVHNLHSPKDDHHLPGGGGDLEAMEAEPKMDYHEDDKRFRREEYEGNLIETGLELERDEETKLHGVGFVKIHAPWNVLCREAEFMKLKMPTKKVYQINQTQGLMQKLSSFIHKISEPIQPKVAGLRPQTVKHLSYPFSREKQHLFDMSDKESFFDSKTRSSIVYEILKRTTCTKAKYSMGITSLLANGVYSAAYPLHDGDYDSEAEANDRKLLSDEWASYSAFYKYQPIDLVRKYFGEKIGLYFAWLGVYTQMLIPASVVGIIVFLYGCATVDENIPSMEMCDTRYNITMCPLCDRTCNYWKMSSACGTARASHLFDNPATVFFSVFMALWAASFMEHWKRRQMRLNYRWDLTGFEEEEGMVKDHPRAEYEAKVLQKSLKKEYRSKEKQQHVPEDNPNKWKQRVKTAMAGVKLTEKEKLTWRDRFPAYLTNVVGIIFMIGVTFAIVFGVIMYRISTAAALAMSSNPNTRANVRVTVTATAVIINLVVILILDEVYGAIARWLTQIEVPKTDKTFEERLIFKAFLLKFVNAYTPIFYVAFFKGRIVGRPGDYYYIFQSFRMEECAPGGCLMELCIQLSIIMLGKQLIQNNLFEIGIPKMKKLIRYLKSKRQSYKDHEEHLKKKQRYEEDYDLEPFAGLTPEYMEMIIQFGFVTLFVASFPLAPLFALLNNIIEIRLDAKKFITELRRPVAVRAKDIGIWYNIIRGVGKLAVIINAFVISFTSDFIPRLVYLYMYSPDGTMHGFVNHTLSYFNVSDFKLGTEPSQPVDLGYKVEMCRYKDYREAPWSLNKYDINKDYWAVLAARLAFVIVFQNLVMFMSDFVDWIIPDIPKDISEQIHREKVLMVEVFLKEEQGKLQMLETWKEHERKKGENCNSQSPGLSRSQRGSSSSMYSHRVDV

xTMEM16A [2] = biological target: T1, xTMEM16A; test: as above; assay type: cell-based; details: 7.5 µM; otherwise same; printed as almost 50%

COc1ccccc1C=NNC(=O)COc1ccc(Cl)cc1C [Ani9, 2-(4-chloro-2-methylphenoxy)-N-[(2-methoxyphenyl)methylideneamino]-acetamide]
inhibition at 1 µM (xTMEM16A [1]; read-out: % inhibition at 1 μM): ~80%

CC(C)(C)C1CCc2c(sc(NC(=O)c3ccco3)c2C(=O)O)C1 (stereo not shown) [CaCCinh-A01, 6-(1,1-dimethylethyl)-2-[(2-furanylcarbonyl)amino]-4,5,6,7-tetrahydrobenzo[b]thiophene-3-carboxylic acid]
% inhibition (xTMEM16A [2]): whereas T16Ainh-A01 and CaCCinh-A01 were much less effective

O=S(=O)(O)c1cc(N=C=S)ccc1/C=C/c1ccc(N=C=S)cc1S(=O)(=O)O [DIDS]
inhibition at 7.5 µM (xTMEM16A [1]; read-out: % inhibition at 7.5 μM): ~50%

COc1cc(Nc2ccc([N+](=O)[O-])cc2C(=O)O)cc2ccccc12 [MONNA, N-((4-methoxy)-2-naphthyl)-5-nitroanthranilic acid]
inhibition at 10 µM (xTMEM16A [1]; read-out: % inhibition at 10 μM): 72 ± 3%
